What was measured:
[1] = test system: GHSV-UL 46 strain of herpes simplex virus-1 (HSV-1); assay: Assay of cytopathic effect (CPE) of herpes simplex virus-1 in Vero E6 cells; type: cell-based; settings: Human alphaherpesvirus 1, Vero C1008, 120 h, read-out: HSV-1 Cytopathic Assay EC50
Procedure: Assay Example 1: Assay of Cytopathic Effect of Herpes Simplex Virus-1 (Evaluation In Vitro)
The assay of cytopathic effect (CPE) was used to determine the antiviral activity of the compound against the GHSV-UL 46 strain of herpes simplex virus-1 (HSV-1).
Virus: HSV-1 GHSV-UL46, ATCC #VR-1544
Cell: African green monkey kidney cell, Vero E6, donated by Wuhan Instititute of Virology, Chinese Academy of Sciences.
Cell growth medium: 500 ml of DMEM medium+50 ml of fetal bovine serum+5 ml of double antibody+5 ml of non-essential amino acids.
Medium for the assay of cytopathic effect: 500 ml of DMEM medium+10 ml of fetal bovine serum+5 ml of double antibody+5 ml of non-essential amino acids.
1.4. […]
2.2. […] Each test compound was measured at 8 concentrations in duplicate. […]
3.4. The absorbance value of each well of the cell plate was read with a microplate reader at a wavelength of 450 nm, and 630 nm was used as a reference wavelength. The value of raw data was the absorbance at 450 nm minus the absorbance at 630 nm (raw data=OD450−OD630).
4.1. The antiviral activity of the test compound (% Inhibition) was calculated using the following equation:
[formula] wherein sample is the absorbance value of compound test wells, cell control is the average absorbance value of cell control wells, and virus control is the average absorbance value of virus control wells. […]

[2] = Evaluation of pharmacokinetics of the compound in mice; type: in vivo; settings: male, mouse, plasma, Balb/c mice
Procedure: Assay Example 2: Evaluation of Pharmacokinetics of the Compound
Object of the assay: to test the pharmacokinetics of the compound in mice in vivo.
Balb/c mice (male, 18-22 g, 6-8 weeks old, from Shanghai SLAC)
The pharmacokinetic profile of the compound after intravenous injection and oral administration in the rodents was tested by the standard protocol. The candidate compound was formulated into a corresponding solution, and administered through a single intravenous injection (1.0 mg/kg, 5% of DMSO/95% of 20% hydroxypropyl-beta-cyclodextrin) or an intragastric administration (1.0 mg/kg, 0.5% of methylcellulose MC4000). The whole blood sample was collected within 24 hours, and centrifuged at 3000 g for 15 minutes. […] The resulting mixture was centrifuged and the supernatant was taken out, to which an equal volume of water was added and centrifuged. The supernatant was taken out, and injected as a sample to quantitatively analyze the plasma drug concentration by LC-MS/MS analysis method. The pharmacokinetic parameters were calculated, such as peak concentration, peak time, clearance rate, half-life, area under the drug-time curve, bioavailability, etc.

[3] = Hygroscopicity study by dynamic vapor sorption (DVS); type: physicochemical; settings: 25° C. and 80% RH
Procedure: Dynamic Vapor Sorption (DVS) Method Used in the Present Disclosure
Instrument model: SMS DVS Advantage dynamic vapor sorption apparatus
Test condition: The sample (10˜15 mg) was taken and put into a DVS sample pan for testing.
The detailed DVS parameters were as follows:
Equilibration: dm/dt=0.01%/min (The shortest time: 10 min, and the longest time: 180 min)
Drying: Dried for 120 min at 0% RH
RH (%) test gradient: 10%
Range of RH (%) test gradient: 0%-90%-0%
The classification of hygroscopicity evaluation was as follows:
Example 4: Study on the Hygroscopicity of the Crystal Form B of the Compound of Formula (II)
SMS DVS Advantage dynamic vapor sorption apparatus
10-15 mg of the crystal form B of the compound of formula (II) was taken and put into a DVS sample pan for testing.

SMILES	EC50 [1] [nM]	bioavailability ([2]; intragastric (oral) administration 1.0 mg/kg, read-out: Bioavailability F) [%]	AUC ([2]; intragastric (oral) administration 1.0 mg/kg, read-out: Concentration integral AUC) [µM·h]	clearance ([2]; single intravenous injection 1.0 mg/kg, read-out: Clearance rate) [mL/min/kg]	half-life ([2]; single intravenous injection 1.0 mg/kg, read-out: Half-life T1/2 (converted)) [h]	Classification of hygroscopicity [3]	Weight increase by moisture absorption ΔW [3] [%]
Cc1nc(N(C)C(=O)[C@@H]2Cc3ccc(-c4ccccn4)cc3C2)sc1S(N)(=O)=O [Compound of formula (I)]	7	75	24.4	1.2	6		
CS(=O)(=O)O.Cc1nc(N(C)C(=O)[C@@H]2Cc3ccc(-c4ccccn4)cc3C2)sc1S(N)(=O)=O						slightly hygroscopic	1.158
